Biological target: T1, MAP3K14 (NIK) (Homo sapiens, UniProt Q99558)
T1 construct: purchased Thermo Fisher Scientific (Life Technologies) SelectScreen
Assay: SelectScreen LanthaScreen
Assay type: binding
Details: read-out: % displacement
Method in brief: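 SelectScreen broad panel; activity (Z'LYTE, Adapta) plus binding formats. ATP: Km app for CSF1R Z'LYTE; 10 for CAMK1 Adapta. Readout = % per kinase.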

T1 sequence (Q99558 whole entry): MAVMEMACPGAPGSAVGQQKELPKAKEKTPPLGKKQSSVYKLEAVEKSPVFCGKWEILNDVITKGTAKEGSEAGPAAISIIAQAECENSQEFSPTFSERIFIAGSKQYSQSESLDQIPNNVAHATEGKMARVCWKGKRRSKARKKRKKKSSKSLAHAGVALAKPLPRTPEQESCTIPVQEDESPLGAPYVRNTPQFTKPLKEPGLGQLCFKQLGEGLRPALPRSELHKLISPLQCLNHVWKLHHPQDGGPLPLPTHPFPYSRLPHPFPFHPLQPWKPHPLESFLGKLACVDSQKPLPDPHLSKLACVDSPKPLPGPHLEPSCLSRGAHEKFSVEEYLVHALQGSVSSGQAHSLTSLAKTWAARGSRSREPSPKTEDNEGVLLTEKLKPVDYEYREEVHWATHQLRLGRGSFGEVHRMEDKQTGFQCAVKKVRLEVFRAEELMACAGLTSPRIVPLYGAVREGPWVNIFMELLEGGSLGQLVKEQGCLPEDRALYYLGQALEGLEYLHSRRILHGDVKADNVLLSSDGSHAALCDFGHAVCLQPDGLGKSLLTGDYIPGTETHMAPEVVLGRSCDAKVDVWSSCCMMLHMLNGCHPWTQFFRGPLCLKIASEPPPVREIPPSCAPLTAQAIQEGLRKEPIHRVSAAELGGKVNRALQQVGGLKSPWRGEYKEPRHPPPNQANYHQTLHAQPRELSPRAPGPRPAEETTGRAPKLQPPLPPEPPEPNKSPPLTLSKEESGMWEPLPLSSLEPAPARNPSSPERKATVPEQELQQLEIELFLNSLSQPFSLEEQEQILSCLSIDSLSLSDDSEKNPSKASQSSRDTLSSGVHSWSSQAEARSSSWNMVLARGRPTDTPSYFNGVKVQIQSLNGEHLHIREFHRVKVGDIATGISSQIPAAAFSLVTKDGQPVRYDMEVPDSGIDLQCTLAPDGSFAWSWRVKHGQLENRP

`CN(C(=O)CN1CCOCC1)c1ccc2sc3c(-c4cccc5c(=O)cc(N6CC7CCC(C6)O7)oc45)cccc3c2c1` [NU5455] was tested, and the inhibition at 1 µM was -0.5%.

— article PMC6934184, “Selective DNA-PKcs inhibition extends the therapeutic index of localized radiotherapy and chemotherapy” (The Journal of Clinical Investigation, 2019)
